What was measured:
[1] = tested on: Raji, human Burkitts lymphoma cells; test: Cell-MTS proliferation assay, Raji; type: cell-based; conditions: 168 hr
Outline: (§1)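 Seed: Raji 15,000, HL-60 5,000, NCI-H460 3,000 cells/96-well. +24 hr: 11-pt compound dilution, 100 μM–2.0 nM final. 7 d culture, MTS reagent, read OD490; IC50 vs DMSO, background subtracted.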

BRD4(BD1) = BRD4(BD1) (Homo sapiens (Human), UniProt O60885); test: In vitro enzyme inhibition assay (BRD4 AlphaScreen); type: binding
Outline: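 His-tagged BRD4 tested by AlphaScreen for binding of biotinylated H4K5/8/12/16-tetraacetyl peptide. After 20 min at room temperature, streptavidin donor and nickel chelate acceptor beads added (5 μg/mL final each). IC50 determined.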

[2] = tested on: HL-60, human proleukemia cells; test: Cell-MTS proliferation assay, HL-60; type: cell-based; conditions: 168 hr
Outline: as §1

[3] = tested on: NCI-H460, human non-small cell lung cancer cells; test: Cell-MTS proliferation assay, NCI-H460; type: cell-based; conditions: 168 hr
Outline: as §1

[4] = Homo sapiens, Raji, Cell-MTS proliferation
[5] = in vitro enzyme inhibition assay
[6] = Homo sapiens, HL-60, Cell-MTS proliferation
[7] = Homo sapiens, NCI-H460, Cell-MTS proliferation
[8] = Homo sapiens, Raji, Cell-MTS, class symbols A/B/C
[9] = Homo sapiens, HL-60, Cell-MTS, class symbols A/B/C
[10] = Homo sapiens, NCI-H460, Cell-MTS, class symbols A/B/C
[11] = Homo sapiens, Cell-MTS proliferation, Raji cells
[12] = Homo sapiens, Cell-MTS proliferation, HL-60 cells
[13] = Homo sapiens, Cell-MTS proliferation, NCI-H460 cells

Compound	IC50 [1, 4] [nM]	IC50 (BRD4(BD1); [5]) [nM]	IC50 [2, 6] [nM]	IC50 [3, 7] [nM]	also measured
CCS(=O)(=O)Nc1cnc(OCC2CC2)c(-c2cn(C)c(=O)c3occc23)c1 [Example 257, N-[6-(cyclopropylmethoxy)-5-(6-methyl-7-oxofuro[2,3-c]pyridin-4-yl)pyridine-3-yl]ethanesulfonamide]	< 500	< 500	< 500	> 5000	
CNc1cc(-c2ccc(OC)c(NS(C)(=O)=O)c2)cn(C)c1=O [Example 110, N-[2-methoxy-5-[1-methyl-5-(methylamino)-6-oxopyridin-3-yl]phenyl]methanesulfonamide]					IC50 [1, 8]: > 5000 nM; IC50 (BRD4(BD1); class symbols A/B/C): < 500 nM; IC50 [2, 9]: 500 to 5000 nM; IC50 [3, 10]: > 5000 nM
Cn1cc(-c2cn(CS(C)(=O)=O)c(=O)cc2Oc2ccc(F)cc2F)c2ccccc2c1=O [Example 387, 4-[4-(2,4-difluorophenoxy)-1-(methylsulfonylmethyl)-6-oxopyridin-3-yl]-2-methylisoquinolin-1-one]		< 500			IC50 [1, 11]: < 500 nM; IC50 [2, 12]: < 500 nM; IC50 [3, 13]: > 5000 nM
Cn1cc(-c2cc(S(C)(=O)=O)ccc2O[C@H]2CC[C@H](O)CC2)c2ccccc2c1=O [Example 180, 4-[2-(trans-4-hydroxycyclohexyl)oxy-5-methylsulfonylphenyl]-2-methylisoquinolin-1-one]	< 500	< 500	< 500	> 5000	
CCS(=O)(=O)Nc1ccc(Oc2ccc(F)cc2F)c(-c2cn(C)c(=O)c3cncn23)c1 [Example 129, N-[4-(2,4-difluorophenoxy)-3-(7-methyl-8-oxoimidazo[1,5-a]pyrazin-5-yl)phenyl]ethanesulfonamide]					IC50 [1, 8]: < 500 nM; IC50 (BRD4(BD1); class symbols A/B/C): < 500 nM; IC50 [2, 9]: < 500 nM; IC50 [3, 10]: > 5000 nM
COc1ccc(-c2cc(N)c(=O)n(C)c2)cc1NS(C)(=O)=O [Example 109, N-[5-(5-amino-1-methyl-6-oxopyridin-3-yl)-2-methoxyphenyl]methanesulfonamide]					IC50 [1, 8]: > 5000 nM; IC50 (BRD4(BD1); class symbols A/B/C): 500 to 5000 nM; IC50 [2, 9]: > 5000 nM; IC50 [3, 10]: > 5000 nM
4-[5-(cyclopropylmethoxy)-2-methylsulfonylpyridin-4-yl]-7-fluoro-2-methylisoquinolin-1-one [Example 203]		< 500			IC50 ([1]; Cell-MTS proliferation): < 500 nM; IC50 ([2]; Cell-MTS proliferation): < 500 nM; IC50 ([3]; Cell-MTS proliferation): > 5000 nM
C#Cc1cc(-c2cc(S(=O)(=O)CC)ccc2OCC2CC2)cn(C)c1=O [Example 284, 5-[2-(cyclopropylmethoxy)-5-ethylsulfonylphenyl]-3-ethynyl-1-methylpyridin-2-one]	500 to 5000	< 500	500 to 5000	> 5000	
COc1cc(F)c(CS(C)(=O)=O)cc1-c1cn(C)c(=O)c2ccc(-c3cnn(C)c3)cc12 [Example 88, 4-[4-fluoro-2-methoxy-5-(methylsulfonylmethyl)phenyl]-2-methyl-6-(1-methylpyrazol-4-yl)isoquinolin-1-one]					IC50 [1, 8]: < 500 nM; IC50 (BRD4(BD1); class symbols A/B/C): < 500 nM; IC50 [2, 9]: < 500 nM; IC50 [3, 10]: > 5000 nM
CCS(=O)(=O)c1cc(-c2cn(C)c(=O)c3ccccc23)c(OCC2CC2)cn1 [Example 207, 4-[5-(cyclopropylmethoxy)-2-ethylsulfonylpyridin-4-yl]-2-methylisoquinolin-1-one]	< 500	< 500	< 500	> 5000	
Cn1cc(Oc2cc(-c3cc(S(C)(=O)=O)ccc3OCC3CC3)cn(C)c2=O)cn1 [Example 293, 5-[2-(cyclopropylmethoxy)-5-methylsulfonylphenyl]-1-methyl-3-(1-methylpyrazol-4-yl)oxypyridin-2-one]	500 to 5000	< 500	500 to 5000	> 5000	
CCS(=O)(=O)c1cnc(OCC2CC2)c(-c2cn(C)c(=O)c3ccccc23)c1 [Example 322, 4-[2-(cyclopropylmethoxy)-5-ethylsulfonylpyridin-3-yl]-2-methylisoquinolin-1-one]	< 500	< 500	< 500	> 5000	
Cc1nc2c(=O)n(C)cc(-c3cc(S(C)(=O)=O)ccc3OCC3CC3)c2o1 [Example 238, 7-[2-(cyclopropylmethoxy)-5-methylsulfonylphenyl]-2,5-dimethyl-[1,3]oxazolo[4,5-c]pyridin-4-one]	500 to 5000	< 500	< 500	> 5000	
Cn1cc(-c2cc(S(C)(=O)=O)ccc2O[C@H]2CC[C@H](N)CC2)c2ccccc2c1=O [Example 182, 4-[2-(trans-4-aminocyclohexyl)oxy-5-methylsulfonylphenyl]-2-methylisoquinolin-1-one]	< 500	< 500	< 500	> 5000	
CCc1cnc(NS(=O)(=O)CC)nc1-c1cc(C)c(=O)n(C)c1 [Example 307, N-[4-(1,5-dimethyl-6-oxopyridin-3-yl)-5-ethylpyrimidin-2-yl] ethanesulfonamide]	< 500	< 500	< 500	> 5000	
Cn1cc(-c2cc(S(C)(=O)=O)ccc2OCC2CC2)n2cncc2c1=O [Example 130, 5-[2-(cyclopropylmethoxy)-5-methylsulfonylphenyl]-7-methylimidazo[1,5-a]pyrazin-8-one]					IC50 [1, 8]: 500 to 5000 nM; IC50 (BRD4(BD1); class symbols A/B/C): < 500 nM; IC50 [2, 9]: < 500 nM; IC50 [3, 10]: > 5000 nM
COc1ccc2c(=O)n(C)cc(-c3cc(S(C)(=O)=O)ccc3OCC3CC3)c2c1 [Example 198, 4-(2-(cyclopropylmethoxy)-5-(methylsulfonyl)phenyl)-6-methoxy-2-methylisoquinolin-1(2H)-one]	< 500	< 500	< 500	> 5000	
C#Cc1cc(-c2cc(NS(=O)(=O)CC)ccc2Oc2ccc(F)cc2F)cn(C)c1=O [Example 283, N-[4-(2,4-difluorophenoxy)-3-(5-ethynyl-1-methyl-6-oxopyridin-3-yl)phenyl]ethanesulfonamide]	500 to 5000	< 500	< 500	> 5000	
Cc1cc(-c2cc(S(C)(=O)=O)ccc2OC2CCOCC2)cn(C)c1=O [Example 420, 1,3-dimethyl-5-[5-methylsulfonyl-2-(oxan-4-yloxy)phenyl]pyridin-2-one]		< 500			IC50 [1, 11]: 500 to 5000 nM; IC50 [2, 12]: < 500 nM; IC50 [3, 13]: > 5000 nM
CCOc1sc(S(=O)(=O)CC)cc1-c1cn(C)c(=O)c2ccccc12 [Example 204, 4-(2-ethoxy-5-ethylsulfonylthiophen-3-yl)-2-methylisoquinolin-1-one]	500 to 5000	< 500	500 to 5000	> 5000	
CCS(=O)(=O)c1ccc(OCC2CC2)c(-c2cc(Cl)c(=O)n(C)c2)c1 [Example 272, 3-chloro-5-[2-(cyclopropylmethoxy)-5-ethylsulfonylphenyl]-1-methylpyridin-2-one]	< 500	< 500	< 500	> 5000	
Cc1cc(-c2cc(NS(C)(=O)=O)ccc2Oc2ccc(F)cc2F)cn(C)c1=O [Example 102, N-[4-(2,4-difluorophenoxy)-3-(1,5-dimethyl-6-oxopyridin-3-yl)phenyl]methanesulfonamide]					IC50 [1, 8]: < 500 nM; IC50 (BRD4(BD1); class symbols A/B/C): < 500 nM; IC50 [2, 9]: < 500 nM; IC50 [3, 10]: > 5000 nM
CCS(=O)(=O)Nc1ncc(OCC2CC2)c(-c2cn(C)c(=O)c3occc23)n1 [Example 264, N-[5-(cyclopropylmethoxy)-4-(6-methyl-7-oxofuro[2,3-c]pyridin-4-yl)pyrimidin-2-yl]ethanesulfonamide]	< 500	< 500	< 500	> 5000	

Reference: patent US10023592B2, “Bromodomain inhibitors” (Celgene Quanticel Research, Inc., priority 2013, dated 2018)
